“And” between values parts separate entries of the source, which are not always exact repeats. Equal values may be shown once. Toxic doses and inconclusive results are not listed.
Tested on: P388 leukemia ip, CD2F1 mice, survival T/C
Experiment: NCI In Vivo Anticancer Drug Screen. Data for tumor model P388 Leukemia (intraperitoneal) in CD2F1 (CDF1) mice
Details: endpoint: median survival time, higher = longer survival
How it was run: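 Mice carrying the transplanted tumor received test compound or vehicle. Survival was recorded in each group, and the value is the treated-group measurement divided by that of the vehicle-treated control group.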

[1] = dose: 25.0 mg/kg/injection, schedule: Q04DX003 (ip), vehicle: saline
[2] = dose: 50.0 mg/kg/injection, schedule: Q01DX005 (ip), vehicle: Klucel (hydroxypropylcellulose) (HPC)
[3] = dose: 100.0 mg/kg/injection, schedule: Q01DX005 (ip), vehicle: Klucel (hydroxypropylcellulose) (HPC)
[4] = dose: 200.0 mg/kg/injection, schedule: Q01DX005 (ip), vehicle: Klucel (hydroxypropylcellulose) (HPC)
[5] = dose: 12.5 mg/kg/injection, schedule: Q01DX009 (ip), vehicle: Klucel (hydroxypropylcellulose) (HPC)
[6] = dose: 25.0 mg/kg/injection, schedule: Q01DX009 (ip), vehicle: Klucel (hydroxypropylcellulose) (HPC)
[7] = dose: 50.0 mg/kg/injection, schedule: Q01DX009 (ip), vehicle: Klucel (hydroxypropylcellulose) (HPC)
[8] = dose: 100.0 mg/kg/injection, schedule: Q01DX009 (ip), vehicle: Klucel (hydroxypropylcellulose) (HPC)
[9] = dose: 60.0 mg/kg/injection, schedule: Q01DX005 (ip), vehicle: saline with Tween-80
[10] = dose: 120.0 mg/kg/injection, schedule: Q01DX005 (ip), vehicle: saline with Tween-80
[11] = dose: 240.0 mg/kg/injection, schedule: Q01DX005 (ip), vehicle: saline with Tween-80
[12] = dose: 50.0 mg/kg/injection, schedule: Q01DX005 (ip), vehicle: saline with Tween-80
[13] = dose: 100.0 mg/kg/injection, schedule: Q01DX005 (ip), vehicle: saline with Tween-80
[14] = dose: 200.0 mg/kg/injection, schedule: Q01DX005 (ip), vehicle: saline with Tween-80
[15] = dose: 100.0 mg/kg/injection, schedule: Q04DX002 (ip), vehicle: saline
[16] = dose: 60.0 mg/kg/injection, schedule: Q01DX005 (ip), vehicle: Klucel (hydroxypropylcellulose) (HPC)
[17] = dose: 120.0 mg/kg/injection, schedule: Q01DX005 (ip), vehicle: Klucel (hydroxypropylcellulose) (HPC)
[18] = dose: 240.0 mg/kg/injection, schedule: Q01DX005 (ip), vehicle: Klucel (hydroxypropylcellulose) (HPC)
[19] = dose: 100.0 mg/kg/injection, schedule: Q01DX001 (ip), vehicle: saline with Tween-80
[20] = dose: 200.0 mg/kg/injection, schedule: Q01DX001 (ip), vehicle: saline with Tween-80

## CC(=O)N1CCCC2=C1CCCC2
[1]
  T/C: 100 % of control
dose: 50.0 mg/kg/injection, schedule: Q04DX003 (ip), vehicle: saline
  T/C: 103 % of control
dose: 100.0 mg/kg/injection, schedule: Q04DX003 (ip), vehicle: saline
  T/C: 104 % of control and 92 % of control
dose: 400.0 mg/kg/injection, schedule: Q04DX003 (ip), vehicle: saline
  T/C: 101 % of control

## CCOC(=O)C1Cc2c(n(C3CCCCC3)c(=O)n(C)c2=O)OC1c1ccccc1 (centres undefined)
[2]
  T/C: 100 % of control
[3]
  T/C: 96 % of control
[4]
  T/C: 90 % of control

## COc1ccc(-c2c3c(c(O)c4cc5c(cc24)OCO5)COC3=O)cc1OC
[5]
  T/C: 95 % of control
[6]
  T/C: 104 % of control
[7]
  T/C: 99 % of control
[8]
  T/C: 105 % of control

## O=C1CSC(c2ccc(C(F)(F)F)cc2)N1c1nncs1 (centres undefined)
[9]
  T/C: 99 % of control
[10]
  T/C: 104 % of control
[11]
  T/C: 97 % of control

## Cc1cc(N=Nc2cc(C)c(NC(=O)c3ccc(NC(=O)c4ccc(N)cc4)cc3)cc2C)ccc1N=Nc1ccc2cc(S(=O)(=O)O)cc(S(=O)(=O)O)c2c1
[12]
  T/C: 110 % of control
[13]
  T/C: 111 % of control
[14]
  T/C: 110 % of control

## O=C1C(N=Nc2ccc(S(=O)(=O)Nc3ccccn3)cc2)C(=O)N(c2ccccc2)C(=S)N1c1ccccc1
dose: 60.0 mg/kg/injection, schedule: Q01DX005 (ip), vehicle: saline
  T/C: 95 % of control
dose: 120.0 mg/kg/injection, schedule: Q01DX005 (ip), vehicle: saline
  T/C: 104 % of control
dose: 240.0 mg/kg/injection, schedule: Q01DX005 (ip), vehicle: saline
  T/C: 100 % of control

## COc1nc(C(O)C2OC(C)(C)OCC2O)[nH]c1C#N (centres undefined)
[7]
  T/C: 106 % of control
[8]
  T/C: 102 % of control and 91 % of control
dose: 200.0 mg/kg/injection, schedule: Q01DX009 (ip), vehicle: Klucel (hydroxypropylcellulose) (HPC)
  T/C: 103 % of control and 110 % of control

## CC(=O)OC(C)C(C)[N+](C)(C)C (centres undefined)
[15]
  T/C: 94 % of control

## CC(C)=NOC(=O)Nc1ccc(F)cc1
[16]
  T/C: 93 % of control
[17]
  T/C: 103 % of control
[18]
  T/C: 106 % of control

## [Cl][Sn]([Cl])([c]1ccccc1)[c]1ccccc1.c1ccc2nc(-c3ccc4ccccc4n3)ccc2c1
dose: 7.5 mg/kg/injection, schedule: Q01DX005 (ip), vehicle: Klucel (hydroxypropylcellulose) (HPC)
  T/C: 100 % of control and 106 % of control
dose: 15.0 mg/kg/injection, schedule: Q01DX005 (ip), vehicle: Klucel (hydroxypropylcellulose) (HPC)
  T/C: 100 % of control and 113 % of control
dose: 30.0 mg/kg/injection, schedule: Q01DX005 (ip), vehicle: Klucel (hydroxypropylcellulose) (HPC)
  T/C: 104 % of control and 117 % of control

## CNC(=O)OCc1cnc2ccc(OC)cc2c1COC(=O)NC
[2]
  T/C: 92 % of control
[3]
  T/C: 99 % of control
[4]
  T/C: 102 % of control

## COC(=O)CCC(=O)Nc1cc(Cl)c(Cl)cc1Cl
[9]
  T/C: 100 % of control
[10]
  T/C: 93 % of control
[11]
  T/C: 91 % of control

## Cc1cc(NC(=O)CSCC(=O)O)no1
[16]
  T/C: 98 % of control
[17]
  T/C: 101 % of control
[18]
  T/C: 94 % of control

## Nc1noc(N)n1
dose: 50.0 mg/kg/injection, schedule: Q01DX005 (ip), vehicle: saline
  T/C: 107 % of control
dose: 100.0 mg/kg/injection, schedule: Q01DX005 (ip), vehicle: saline
  T/C: 110 % of control
dose: 200.0 mg/kg/injection, schedule: Q01DX005 (ip), vehicle: saline
  T/C: 124 % of control

## CC1CC1(C1C=CCCC1)C1C=CCCC1 (centres undefined)
[12]
  T/C: 100 % of control
[13]
  T/C: 100 % of control
[14]
  T/C: 108 % of control

## COc1ccc2c(c1)N(C(=O)CNC(C)(C)C)c1ccccc1S2
[15]
  T/C: 117 % of control
dose: 200.0 mg/kg/injection, schedule: Q04DX002 (ip), vehicle: saline
  T/C: 99 % of control

## COC(=O)C(CSCSCc1ccccc1)NC(=O)C(CSCc1ccccc1)NC(=O)CCNC(=O)OCc1ccccc1 (centres undefined)
dose: 3.12 mg/kg/injection, schedule: Q04DX003 (ip), vehicle: saline
  T/C: 114 % of control
dose: 6.25 mg/kg/injection, schedule: Q04DX003 (ip), vehicle: saline
  T/C: 100 % of control
dose: 12.5 mg/kg/injection, schedule: Q04DX003 (ip), vehicle: saline
  T/C: 98 % of control
[1]
  T/C: 112 % of control

## Cc1[nH]c(C)c(Br)c(=O)c1F
dose: 6.25 mg/kg/injection, schedule: Q01DX009 (ip), vehicle: Klucel (hydroxypropylcellulose) (HPC)
  T/C: 116 % of control
[5]
  T/C: 110 % of control
[6]
  T/C: 100 % of control

## C/C(=N/N(C)C)c1ccc(Cl)cc1
dose: 100.0 mg/kg/injection, schedule: Q01DX001 (ip), vehicle: saline
  T/C: 100 % of control
dose: 200.0 mg/kg/injection, schedule: Q01DX001 (ip), vehicle: Klucel (hydroxypropylcellulose) (HPC)
  T/C: 108 % of control
dose: 200.0 mg/kg/injection, schedule: Q01DX001 (ip), vehicle: saline
  T/C: 108 % of control
dose: 400.0 mg/kg/injection, schedule: Q01DX001 (ip), vehicle: Klucel (hydroxypropylcellulose) (HPC)
  T/C: 106 % of control
dose: 400.0 mg/kg/injection, schedule: Q01DX001 (ip), vehicle: saline
  T/C: 106 % of control

## COc1ccc2c3csc4ccccc4c-3nc2c1
dose: 16.0 mg/kg/injection, schedule: Q01DX009 (ip), vehicle: saline
  T/C: 107 % of control
dose: 25.0 mg/kg/injection, schedule: Q01DX009 (ip), vehicle: saline
  T/C: 115 % of control
dose: 35.0 mg/kg/injection, schedule: Q01DX009 (ip), vehicle: saline
  T/C: 95 % of control

## Cc1cc2ccccc2c(N=Cc2cc(Br)cc(Br)c2O)c1C#N
[19]
  T/C: 95 % of control
[20]
  T/C: 98 % of control
dose: 400.0 mg/kg/injection, schedule: Q01DX001 (ip), vehicle: saline with Tween-80
  T/C: 112 % of control

## O=C(O)CCC(=O)NCCNC(=O)CCC(=O)O
dose: 50.0 mg/kg/injection, schedule: Q01DX009 (ip), vehicle: saline
  T/C: 101 % of control
dose: 100.0 mg/kg/injection, schedule: Q01DX009 (ip), vehicle: saline
  T/C: 101 % of control
dose: 200.0 mg/kg/injection, schedule: Q01DX009 (ip), vehicle: saline
  T/C: 104 % of control

## CC(C)OC(=O)C(C)(C)Oc1ccc(C(=O)c2ccc(Cl)cc2)cc1
dose: 50.0 mg/kg/injection, schedule: Q01DX009 (ip), vehicle: saline with Tween-80
  T/C: 111 % of control
dose: 100.0 mg/kg/injection, schedule: Q01DX009 (ip), vehicle: saline with Tween-80
  T/C: 98 % of control
dose: 200.0 mg/kg/injection, schedule: Q01DX009 (ip), vehicle: saline with Tween-80
  T/C: 97 % of control

## CC1CC2Oc3ccc(Cl)cc3C(=O)N2O1 (centres undefined)
dose: 7.5 mg/kg/injection, schedule: Q01DX009 (ip), vehicle: saline
  T/C: 115 % of control
dose: 15.0 mg/kg/injection, schedule: Q01DX009 (ip), vehicle: saline
  T/C: 113 % of control
dose: 30.0 mg/kg/injection, schedule: Q01DX009 (ip), vehicle: saline
  T/C: 104 % of control

## COc1ccc(/C=N/N2C(=O)c3ccccc3C2=O)cc1
[2]
  T/C: 105 % of control
[3]
  T/C: 93 % of control
[4]
  T/C: 100 % of control

## S=C(SCc1cc(Cl)cc2c1OCOC2)N1CCSCC1
[9]
  T/C: 105 % of control
[10]
  T/C: 92 % of control
[11]
  T/C: 92 % of control

## CCOP1(OCC)(SSC)OC(=O)C(C)S1 (centres undefined)
dose: 5.0 mg/kg/injection, schedule: Q01DX005 (ip), vehicle: saline with Tween-80
  T/C: 108 % of control
dose: 10.0 mg/kg/injection, schedule: Q01DX005 (ip), vehicle: saline with Tween-80
  T/C: 101 % of control
dose: 20.0 mg/kg/injection, schedule: Q01DX005 (ip), vehicle: saline with Tween-80
  T/C: 108 % of control
[9]
  T/C: 94 % of control

## C=C1C(=O)O[C@@H]2C[C@@H](C)[C@@H]3CC(=O)OC[C@@]3(C)C[C@H]12
dose: 50.0 mg/kg/injection, schedule: Q01DX001 (ip), vehicle: saline with Tween-80
  T/C: 100 % of control
[19]
  T/C: 117 % of control
[20]
  T/C: 118 % of control

## CCOC(=O)Nc1cc2c(c(N)n1)N=C(c1ccc(Cl)cc1Cl)CN2
dose: 12.5 mg/kg/injection, schedule: Q01DX005 (ip), vehicle: saline with Tween-80
  T/C: 157 % of control
dose: 25.0 mg/kg/injection, schedule: Q01DX005 (ip), vehicle: saline with Tween-80
  T/C: 90 % of control

— PubChem BioAssay AID330 (DTP/NCI, 2004)
